The text below walks through data of patent US20050061314A1, “Metered dose inhaler” (Vactura Limited, priority 2001, published 2005).

The structures appear in SMILES notation.

Series [1] relates to mice. The settings on record: cited from earlier work.
For series [2] the following is noted: mouse brain; cited from earlier work.
In series [3] the test system is GABA. To be noted: cited from earlier work.
In series [4] the test system is effect of THC. To be noted: cited from earlier work.
Series [5] has as its system cataleptic effect of THC. To be noted: mice; cited from earlier work.
The subject of series [6] is asthmatic patients. The settings on record: pMDI with CFC propellant and ethanol; cited from earlier work.
The nature of series [7]: Andersen Cascade Impactor aerosol characterisation of pMDI solution formulations. Type of series: physicochemical. As for the experimental part:
The FPD, which provides a direct measurement of the aerosol particles considered suitable for deposition and retention in the respiratory tract, is calculated as the mass of the particles deposited from stage 3 to the filter (particles with an aerodynamic diameter less than 4.7 μm) in an Andersen Cascade Impactor.
The aerodynamic particle size distribution of an aerosol formulation is characterised using a Multistage Cascade Impactor according to the procedure described in European Pharmacopoeia 2nd edition, 1995, part V.5.9.1, pages 15-17. Generally an Andersen Cascade Impactor (ACI) is utilised. Deposition of the drug on each ACI plate is determined by high performance liquid chromatography (HPLC). Mean metered dose is calculated from the cumulative deposition in the actuator and ACI stages; mean delivered dose is calculated from the cumulative deposition in the ACI. Mean respirable dose (fine particle dose, i.e. FPD) which provides a direct measurement of the aerosol particles is considered suitable for deposition and retention in the respiratory tract, is obtained from the deposition on Stage 3 (S3) to filter (AF) corresponding to particles with an aerodynamic diameter ≦4.7 μm. Smaller particles, with an aerodynamic diameter ≦1.1 μm correspond to the fraction obtained from the deposition on Stage 6 to filter.
The FPD can also be expressed as a percentage of the ex-valve dose or recovered dose (i.e. Fine Particle Fraction: FPF≦4.7 μm or FPF≦1.1 μm). Shot weights are measured by weighing each canister before and after the actuation.
The experiments of example 2 consisted of discharging Δ^9-THC (THC)/ethanol/glycerol/HFA 134a and Δ^9-THC hemisuccinate (THC-HS)/ethanol/glycerol/HFA 134a formulations through actuator inserts housed in a modified Bespak actuator (630 series) into an Andersen Cascade Impactor operated at 28.3 L min^−1. Two product strengths, 100 μg/dose and 1000 μg/dose, were used in combination with 5% or 10% w/w ethanol, and 0.1% or 0.3% glycerol. Experiments were conducted using 0.14 and 0.16 mm diameter, 0.60 mm long, laser drilled actuator orifices in accordance with the invention in its preferred aspects and a third party supplied actuator with an orifice diameter of 0.22 mm. The quantities of drug deposited on the actuator, the throat and the stages of the impactor were measured. The delivered dose, the mass median aerodynamic diameter (MMAD), the geometric standard deviation (GSD), the fine particle dose ≦4.7 μm (FPD≦4.7) and the fine particle dose ≦1.1 μm (FPD≦1.1) were calculated from the results of these experiments and are set out in tables 3 and 4. The FPDs were also expressed as a % fraction of the ex-valve dose (FPF≦4.7, FPF≦1.1). Shot weight was measured by weighing the pMDI before and after discharge. These latter parameters are also set out in tables 3 and 4 along with other results of these experiments.

Where [8] appears, read: 100 μg, 5% Ethanol, 0.1% Glycerol, HFA134a, 50 μl, Actuator 0.14 mm.
[9] abbreviates: 1000 μg, 5% Ethanol, 0.1% Glycerol, HFA134a, 50 μl, Actuator 0.14 mm.
Where [10] appears, read: 100 μg/50 μl/134a, 5% Et, 0.1% Gly, 0.14 mm Aluminium insert (4b).
Where [11] appears, read: 100 μg/50 μl/134a, 5% Et, 0.1% Gly, 0.16 mm Al insert (11A).
Where [12] appears, read: 100 μg/50 μl/134a, 5% Et, 0.1% Gly, 0.22 mm Bespak Actuator.
Where [13] appears, read: 100 μg/50 μl/134a, 10% Et, 0.3% Gly, 0.14 mm Aluminium insert (4b).

As to `CCCCCc1cc(O)c2c(c1)OC(C)(CCC=C(C)C)C=C2` (stereo not drawn) [CBC, cannabichromene], the “effect on LD50 of THC” value in series [1] is “does lower LD50 of THC”.
Turning to `C=C(C)[C@@H]1CCC(C)=C[C@H]1c1c(O)cc(CCCCC)cc1O` [CBD, cannabidiol], in series [2], the “effect on THC levels in the brain” value is on record as “increases THC levels”.
Turning to `CCCCCc1cc(O)c(C/C=C(\C)CCC=C(C)C)c(O)c1` [CBG, cannabigerol], the “GABA inhibitor potency relative to THC” value in series [3] was “more potent GABA inhibitor than THC”.
Consider `CCCCCc1cc(O)c2c(c1)OC(C)(C)c1ccc(C)cc1-2` [CBN, cannabinol], for which the “effect on the effect of THC in man” value in series [4] is “potentates the effect of THC”. Besides, the “effect on cataleptic effect of THC” value in series [5] is given as “antagonises cataleptic effect of THC”.
Regarding `CCCCCc1cc(O)c2c(c1)OC(C)(C)[C@@H]1CCC(C)=C[C@@H]21` [THC, Δ^9-tetrahydrocannabinol, reference compound], in series [6], the bronchodilatory effect entry is “bronchodilatory effect”. In addition, in series [7] (setting [8]), the Delivered is 108.2 µg, the “FPD<1.1 μm” value was 42.01 µg, the “FPD<3.3 μm” value came to 98.02 µg and the “FPD<4.7 μm” value is 101.71 µg. In addition, in series [7] (setting [8]), the “FPF<1.1 μm” value is recorded as 36.63%, the “FPF<3.3 μm” value was 85.46%, the “FPF<4.7” value came to 88.67% and the GSD stood at 1.8. Besides, in series [7] (setting [8]), the MMAD was found to be 1.3 μm, the Recovered turned out to be 114.7 µg and the “Shot Weight ± SD” value is 62.4 ± 0.8 mg. Besides, in series [7] (setting [9]), the Delivered is 1044.5 µg, the “FPD<1.1 μm” value was found to be 129.7 µg, the “FPD<3.3 μm” value came to 735.5 µg and the “FPD<4.7 μm” value worked out at 907.14 µg. Moreover, in series [7] (setting [9]), the “FPF<1.1 μm” value is 11.69%, the “FPF<3.3 μm” value was determined as 66.32%, the “FPF<4.7” value was 81.79% and the GSD is 1.7. Moreover, in series [7] (setting [9]), the MMAD stood at 2.3 μm, the Recovered came out at 1109.1 µg and the “Shot Weight ± SD” value is recorded as 63.8 ± 0.4 mg.
Turning to `CCCCCc1cc(OC(=O)CCC(=O)O)c2c(c1)OC(C)(C)[C@@H]1CCC(C)=C[C@@H]21` [THC-HS, Δ^9-THC hemisuccinate], in series [7] (setting [8]), the Delivered amounted to 97.30 µg, the “FPD<1.1 μm” value worked out at 37.56 µg, the “FPD<3.3 μm” value stood at 89.66 µg and the “FPD<4.7 μm” value amounted to 91.94 µg. Also, in series [7] (setting [8]), the “FPF<1.1 μm” value was found to be 36.86%, the “FPF<3.3 μm” value is on record as 87.99%, the “FPF<4.7” value worked out at 90.23% and the GSD is 1.7. Also, in series [7] (setting [8]), the MMAD is 1.3 μm, the Recovered was 101.90 µg and the “Shot Weight ± SD” value is 64.7 ± 0.5 mg. Besides, in series [7] (setting [10]), the Actuator was determined as 4.57 µg, the Delivered was determined as 97.30 µg, the “Dose < 1.1 μm” value came to 37.56 µg and the “FPD<3.3 μm” value stood at 89.66 µg. Also, in series [7] (setting [10]), the “FPD<4.7 μm” value worked out at 91.94 µg, the “FPF<1.1 μm” value is listed as 36.86%, the “FPF<3.3 μm” value is reported as 87.99% and the “FPF<4.7” value turned out to be 90.23%. In series [7] (setting [10]), the GSD is 1.7, the MMAD is 1.3 μm, the Recovered was 101.90 µg and the “Shot Weight ± SD” value is reported as 64.7 ± 0.5 mg. The Throat in series [7] (setting [10]) is 3.51 µg. Further, in series [7] (setting [11]), the Actuator was 4.88 µg, the Delivered was found to be 93.40 µg, the “Dose < 1.1 μm” value was 28.19 µg and the “FPD<3.3 μm” value was 80.07 µg. In addition, in series [7] (setting [11]), the “FPD<4.7 μm” value is 83.56 µg, the “FPF<1.1 μm” value was found to be 28.59%, the “FPF<3.3 μm” value worked out at 81.25% and the “FPF<4.7” value is recorded as 84.79%. In series [7] (setting [11]), the GSD is given as 1.8, the MMAD is on record as 1.4 μm, the Recovered amounted to 98.55 µg and the “Shot Weight ± SD” value is 62.0 ± 0.6 mg. The Throat in series [7] (setting [11]) was determined as 7.52 µg. For the same compound, in series [7] (setting [12]), the Actuator turned out to be 7.71 µg, the Delivered worked out at 98.00 µg, the “Dose < 1.1 μm” value is 24.30 µg and the “FPD<3.3 μm” value stood at 77.43 µg. Moreover, in series [7] (setting [12]), the “FPD<4.7 μm” value was determined as 82.02 µg, the “FPF<1.1 μm” value is 22.99%, the “FPF<3.3 μm” value is given as 73.25% and the “FPF<4.7” value is 77.60%. Besides, in series [7] (setting [12]), the GSD worked out at 1.7, the MMAD worked out at 1.5 μm, the Recovered is 105.70 µg and the “Shot Weight ± SD” value worked out at 62.6 ± 0.4 mg. The Throat in series [7] (setting [12]) came out at 13.82 µg. In addition, in series [7] (setting [13]), the Actuator was 4.35 µg, the Delivered worked out at 79.50 µg, the “Dose < 1.1 μm” value came out at 14.21 µg and the “FPD<3.3 μm” value is 65.50 µg. Moreover, in series [7] (setting [13]), the “FPD<4.7 μm” value stood at 70.93 µg, the “FPF<1.1 μm” value stood at 16.96%, the “FPF<3.3 μm” value is recorded as 78.16% and the “FPF<4.7” value is on record as 84.64%. Besides, in series [7] (setting [13]), the GSD was found to be 1.7, the MMAD was 1.7 μm, the Recovered worked out at 83.80 µg and the “Shot Weight ± SD” value amounted to 60.7 ± 0.6 mg. The Throat in series [7] (setting [13]) was 5.93 µg. In addition, in series [7] (setting [9]), the Delivered came out at 834.3 µg, the “FPD<1.1 μm” value came out at 138.04 µg, the “FPD<3.3 μm” value is 676.16 µg and the “FPD<4.7 μm” value came out at 771.92 µg. Besides, in series [7] (setting [9]), the “FPF<1.1 μm” value is recorded as 15.83%, the “FPF<3.3 μm” value was determined as 77.56%, the “FPF<4.7” value is 88.54% and the GSD turned out to be 1.7. In series [7] (setting [9]), the MMAD is listed as 1.9 μm, the Recovered was 871.8 µg and the “Shot Weight ± SD” value turned out to be 64.7 ± 0.6 mg.
